Where a SMILES comes first, the peptide text is derived from it. Bridges are numbered along the chain shown (N, C = ends). [ ]: non-standard residue; d: D form. S5 = C=CCCC[C@](C)(N)C(=O)O
Assays:
[1] = test system: PVP with Wuhan variant S-protein
[2] = test system: full-length SARS-CoV-2 S protein (Wuhan variant); experiment: Competition of P1st with FAM-labeled peptides for S protein binding (fluorescent immunoassay); settings: P1st at 25 μM; P1-FAM 3.25 to 25 μM; fluorescence intensity; result in words
[3] = test system: live SARS-CoV-2 virus (variant B.1.1)
[4] = test system: full-length S protein of SARS-CoV-2 (Wuhan variant); assay type: binding; settings: S protein 1 μg/mL coated; peptide incubated 2 h at RT; fluorescence 483 nm excitation/530 nm emission; result in words
[5] = test system: full-length S protein of SARS-CoV-2 (Wuhan variant); experiment: Immunosorbent assay of P2 binding to immobilized S protein, detected with anti-P1 antibodies; settings: P2 incubated 2 h at 37 °C; anti-P1 antibody 1 μg/mL, anti-rabbit IgG-HRP, TMB, A450-620; result in words

CC[C@H](C)[C@H](NC(=O)[C@@H](NC(=O)[C@H](CO)NC(C)=O)[C@@H](C)O)C(=O)N[C@@H](CCC(=O)O)C(=O)N[C@@H](CCC(=O)O)C(=O)N[C@@H](CCC(N)=O)C(=O)N[C@@H](C)C(=O)N[C@@H](CCCCN)C(=O)N[C@H](C(=O)N[C@@]1(C)CCCC=CCCC[C@@](C)(C(=O)N[C@@H](CC(N)=O)C(=O)N[C@@H](Cc2c[nH]cn2)C(=O)N[C@@H](CCC(=O)O)C(=O)N[C@@H](C)C(=O)N[C@@H](CCC(=O)O)C(=O)N[C@@H](CC(=O)O)C(=O)N[C@@H](CC(C)C)C(=O)N[C@@H](Cc2ccccc2)C(=O)N[C@@H](Cc2ccc(O)cc2)C(=O)N[C@@H](CCC(N)=O)C(=O)N[C@@]2(C)CCCC=CCCC[C@@](C)(C(=O)N[C@@H](Cc3c[nH]c4ccccc34)C(=O)N[C@@H](CC(N)=O)C(=O)N[C@@H](Cc3ccc(O)cc3)C(N)=O)NC(=O)[C@H](C)NC(=O)[C@H](CC(C)C)NC(=O)[C@H](CO)NC2=O)NC(=O)[C@H](CCCCN)NC(=O)[C@H](CC(=O)O)NC(=O)[C@H](CC(C)C)NC1=O)[C@@H](C)O [P1st] (Ac-STIEEQAKT[S5]LDK[S5]NHEAEDLFYQ[S5]SLA[S5]WNY-NH2; staple 10-14, 25-29)
IC50 ([1]; 48 h): 25.4 µM
Competition with other peptides (P1-FAM, SAP) for binding to S protein [2]: able to efficiently compete
IC50 (BA.1-like (Omicron) PVP; 48 h): 18.3 µM
IC50 ([3]; live virus (variant B.1.1, 4 h)): 7.04 µM

EDLFYQ [SAP6, short ACE2 peptide, 6 aa, described previously [23]]
Binding of FAM-labeled peptide to immobilized full-length S protein [4]: reasonable binding

EDLFYQSSL [SAP2, short ACE2 peptide, 9 aa, described previously [23]]
Binding of FAM-labeled peptide to immobilized full-length S protein [4]: reasonable binding

GKGDFRIL [SAP4, reference compound]
Binding of FAM-labeled peptide to immobilized full-length S protein [4]: failed to bind
Inhibitory activity on PVP (Wuhan S protein) entry at high concentration ([1]; 200 μM peptide, HEK/ACE2 cells, judged non-specific, result in words): Marked inhibitory activity
Inhibitory activity on live SARS-CoV-2 infection of Vero cells at high concentration ([3]; 300 μM peptide, […], judged non-specific, result in words): Inhibitory activity

MSTIEEQAKTFLDKFNHEAEDLFYQSSLASWNYNTNITEENVQNMNNAGDKWSAFLKEQSTLAQMYPLQEIQNLTVKLQLQALQ [P2]
P2 binding to immobilized full-length S protein [5]: demonstrated their binding ability
Inhibition of PVP (Wuhan S protein) entry into ACE2-overexpressing cells ([1]; peptide 0 to 56 μM (Figure 3), […], flow cytometry, result in words): could not inhibit entry
Inhibition of PVP (BA.1-like S protein) entry into ACE2-overexpressing cells (BA.1-like (Omicron) PVP; […], flow cytometry, result in words): failed to inhibit PVP entry

STIEEQAKTFLDAFNHAAAALFAQSSLASWNY [P1m, control P1 with alanine substitutions of key amino acids]
Binding of FAM-labeled peptide to immobilized full-length S protein [4]: failed to bind

TFLDKFNHEAEDLFYQ [SAP1, short ACE2 peptide, 16 aa, described previously [23]]
Binding of FAM-labeled peptide to immobilized full-length S protein [4]: reasonable binding
